Laboratory results as given in article PMC11394700, “Characterization of Stealth Liposome-Based Nanoparticles Encapsulating the ACAT1/SOAT1 Inhibitor F26: Efficacy and Toxicity Studies In Vitro and in Wild-Type Mice” (International Journal of Molecular Sciences, 2024).
“And” between values parts separate entries of the source, which are not always exact repeats. Equal entries are not always repeated. Where two headings read alike, the source gives them in different places. Each block holds one compound with its values, some of them ahead of it.

What was measured:
[1] = Plasma and brain pharmacokinetics after single IV dose (LC-MS/MS); format: in vivo, mouse; settings: WT mice
Procedure: After intravenous administration of F26, mice were perfused with PBS at scheduled time points. Plasma and brain tissue were collected, flash-frozen in liquid nitrogen, and stored at −80 °C until analysis. […] Calibrator and quality control (QC) samples were prepared in the appropriate C57BL/6 mouse matrix: pooled plasma (anticoagulant: K3-EDTA, Innovative Research) and brain homogenate. The brain tissues were homogenized at 0.1 g/mL in deionized water using stainless-steel beads and a Next Advance Bullet Blender. Samples were cleaned up and analytes were extracted using protein precipitation followed by nitrogen dry down and reconstitution. […] Samples were vortex-mixed for 5 min then centrifuged for 10 min at 21,130× g and a total of 200 µL of clear supernatant was transferred to new tubes and dried under nitrogen in a water bath at 45 °C. The dried residues were reconstituted in 80:20 methanol:water (plasma: 400 µL, brain: 200 µL), vortex-mixed for 15 s and centrifuged at 21,130× g for 5 min. Finally, 100 µL of supernatant was transferred to amber autosampler vials, and 2 µL was injected into the LC-MS/MS system. For the quantitative analysis, each sample was prepared in triplicate and each replicate was injected onto the LC-MS/MS system three times. Liquid chromatography was performed on a Thermo Scientific Vanquish Flex UHPLC system using buffers A = 0.1% formic acid in water and B = 0.1% formic acid in methanol. A Thermo Scientific Accucore C18 50 × 2.1 mm 2.6 µm column fitted with a 10 × 2.1 mm 2.6 µm C18 guard cartridge maintained at 40 °C was used. […] A Thermo Scientific TSQ Quantis triple quadrupole mass spectrometer was operated in positive ion mode with a collision pressure of 1.5 mTorr for quantification. […] The heated electrospray ionization (H-ESI) source was operated with a spray voltage of 3500 V, vaporizer temperature 400 °C, ion transfer tube temperature 300 °C, sheath gas 23, aux gas 12 and ion sweep gas 0.5 (gases are arbitrary units). The quantitative range for F26 was 0.5–500 ng/mL for plasma samples and 0.3–200 ng/mL for brain samples. QC samples were prepared at 1.5, 150, and 400 ng/mL for plasma and at 0.9, 80, and 150 ng/mL for brain.

[2] = tested on: rat liver microsomal ACAT; set-up: method as in earlier work; settings: F26 = compound 3 in ref; cited from earlier work
[3] = molecular target: T1, ACAT1 (Mus musculus, UniProt Q61263); assay: ACAT activity by [3H] oleate pulse assay in MEFs; format: cell-based
T1 construct: MEFs predominantly express ACAT1, not ACAT2; endogenous in cells; host or cells: mouse embryonic fibroblasts (MEFs)
T1 sequence (Q61263 1-540): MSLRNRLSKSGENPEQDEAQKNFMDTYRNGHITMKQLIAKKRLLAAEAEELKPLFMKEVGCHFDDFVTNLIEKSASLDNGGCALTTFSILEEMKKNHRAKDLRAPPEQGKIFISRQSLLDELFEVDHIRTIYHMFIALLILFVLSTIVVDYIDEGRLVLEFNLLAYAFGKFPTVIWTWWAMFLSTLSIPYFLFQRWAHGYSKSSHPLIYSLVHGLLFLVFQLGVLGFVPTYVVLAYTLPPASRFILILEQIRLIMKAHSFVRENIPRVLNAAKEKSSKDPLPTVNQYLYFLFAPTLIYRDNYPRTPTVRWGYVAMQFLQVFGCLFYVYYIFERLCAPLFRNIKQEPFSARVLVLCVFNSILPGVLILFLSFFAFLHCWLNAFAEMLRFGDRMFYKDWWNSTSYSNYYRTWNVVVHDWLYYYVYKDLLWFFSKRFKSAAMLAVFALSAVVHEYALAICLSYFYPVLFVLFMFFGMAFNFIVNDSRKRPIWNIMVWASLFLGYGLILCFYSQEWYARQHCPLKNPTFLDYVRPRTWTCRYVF
Procedure: The [^3H] oleate pulse assay was performed as described [76, 77]. […] For the washout assay, cells were washed and incubated with a conditioned drug-free medium for a given amount of time. After the incubation, cells were pulsed with 10 µL of 10 mM [^3H] oleate/BSA (containing 4 µCi) for 2 h in a 37 °C water bath with 5% CO2. At the end of the pulse period, cells were placed on ice, washed three times with cold PBS, and lysed with 0.2 M NaOH. Lysates were aliquoted first for protein measurement and the remaining extract was neutralized to pH 7.0 by adding 3 M HCl and 1 M KH2PO4 at pH 7. Lipids were then extracted with chloroform:methanol (2:1) and water. Samples were vortex-mixed and centrifuged at 500 rpm for 10 min. The top phase was removed, and the bottom phase was blow-dried by nitrogen gas. Dried samples were dissolved in ethyl acetate and spotted on a thin-layer chromatography (TLC) plate (Miles Scientific Silica gel HL, Catalog No. P46911). The solvent system used was petroleum ether:ethyl ether:acetic acid (90:10:1). The cholesteryl ester band with an Rf value at 0.9 was visualized by iodine staining, scraped from the plate, and measured with a scintillation counter.

[4] = tested on: MEFs; assay: XTT cytotoxicity assay in MEFs; format: cell-based, mouse; settings: for Effect on cell viability (XTT): MEFs, concentrations below 50 µM, 24 h
Procedure: (§1) An XTT cell proliferation assay kit (measures mitochondrial redox activity in metabolically active cells) was purchased from ATCC (Catalog No. 30-1011K, Manassas, VA, USA). Cell toxicity assessment was performed according to the manufacturer’s protocol. MEFs were seeded in a 96-well plate, 2500 cells per well, and cultured in full growth medium for 24 h. […] After the treatment, XTT reagent was added to each well, and the plates were incubated at 37 °C for 4 h. Following the incubation, absorbance was measured by using a BioTek Synergy Neo2 Hybrid Multimode Reader (BioTek, Winooski, VT, USA).

[5] = XTT cytotoxicity assay in MEFs; format: cell-based, mouse; settings: mouse; MEFs, 150 µM, 24 h; read-out: Cell viability (XTT)
Procedure: as §1

[6] = tested on: human ACAT2; settings: cited from earlier work
[7] = tested on: primary mouse neuronal cells; settings: concentrations up to 10 µM; cited from earlier work
[8] = WT mice, individual samples, cited from earlier work
[9] = 4 h after single IV NP F26 51 mg/kg, individual samples, 51 mg/kg
[10] = 12 h after single IV NP F26 51 mg/kg, individual samples, 51 mg/kg
[11] = 24 h after single IV NP F26 51 mg/kg, individual samples, 51 mg/kg
[12] = 48 h after single IV NP F26 51 mg/kg, individual samples, 51 mg/kg
[13] = 4 h after single IV NP F12511 46 mg/kg
[14] = 12 h after single IV NP F12511 46 mg/kg
[15] = 24 h after single IV NP F12511 46 mg/kg

Brain Concentration [1, 9]: 1148 ng/g
Brain-to-Plasma Ratio [1, 9]: 0.069
Plasma Concentration [1, 9]: 16,540 ng/mL
Brain Concentration [1, 10]: 529 ng/g
Brain-to-Plasma Ratio [1, 10]: 0.125
Plasma Concentration [1, 10]: 4243 ng/mL
Brain Concentration [1, 11]: 347 ng/g
Brain-to-Plasma Ratio [1, 11]: 0.283
Plasma Concentration [1, 11]: 3218 ng/mL and 1226 ng/mL
Brain Concentration [1, 12]: 86 ng/g
Brain-to-Plasma Ratio [1, 12]: 1.377
Plasma Concentration [1, 12]: 62 ng/mL
concentration at 4 h ([1]; C57BL/6, mouse, brain, iv, 51 mg/kg, 4 h after single IV NP F26 51 mg/kg, individual samples, read-out: Brain Concentration): 1120 ng/g
Kp at 4 h ([1]; C57BL/6, mouse, brain, iv, 51 mg/kg, 4 h after single IV NP F26 51 mg/kg, individual samples, read-out: Brain-to-Plasma Ratio): 0.061
concentration at 12 h ([1]; C57BL/6, mouse, brain, iv, 51 mg/kg, 12 h after single IV NP F26 51 mg/kg, individual samples, read-out: Brain Concentration): 671 ng/g
Kp at 12 h ([1]; C57BL/6, mouse, brain, iv, 51 mg/kg, 12 h after single IV NP F26 51 mg/kg, individual samples, read-out: Brain-to-Plasma Ratio): 0.147
concentration at 24 h ([1]; C57BL/6, mouse, brain, iv, 51 mg/kg, 24 h after single IV NP F26 51 mg/kg, individual samples): 571 ng/g
Kp at 24 h ([1]; C57BL/6, mouse, brain, iv, 51 mg/kg, 24 h after single IV NP F26 51 mg/kg, individual samples, read-out: Brain-to-Plasma Ratio): 0.178
concentration at 48 h ([1]; C57BL/6, mouse, brain, iv, 51 mg/kg, 48 h after single IV NP F26 51 mg/kg, individual samples, read-out: Brain Concentration): 59 ng/g
Kp at 48 h ([1]; C57BL/6, mouse, brain, iv, 51 mg/kg, 48 h after single IV NP F26 51 mg/kg, individual samples, read-out: Brain-to-Plasma Ratio): 1.6
Cmax ([1]; C57BL/6, mouse, brain, single IV NP F26 51 mg/kg, read-out: Cmax in brain): 1130 ng/g
half-life ([1]; C57BL/6, mouse, brain, single IV NP F26 51 mg/kg, read-out: T1/2 in brain (converted)): 10.5 h
Tmax ([1]; C57BL/6, mouse, brain, single IV NP F26 51 mg/kg, read-out: Tmax in brain): 4 h
concentration at 4 h ([1]; C57BL/6, mouse, plasma, iv, 51 mg/kg, 4 h after single IV NP F26 51 mg/kg, individual samples, read-out: Plasma Concentration): 18500 ng/mL
concentration at 12 h ([1]; C57BL/6, mouse, plasma, iv, 51 mg/kg, 12 h after single IV NP F26 51 mg/kg, individual samples, read-out: Plasma Concentration): 4570 ng/mL
concentration at 48 h ([1]; C57BL/6, mouse, plasma, iv, 51 mg/kg, 48 h after single IV NP F26 51 mg/kg, individual samples, read-out: Plasma Concentration): 37 ng/mL
Tmax ([1]; C57BL/6, mouse, plasma, single IV NP F26 51 mg/kg, non-compartmental, n = 2, read-out: Tmax in plasma): 4 h
AUC(0-t) ([1]; C57BL/6, mouse, plasma, single IV NP F26 51 mg/kg, read-out: AUClast in plasma): 229 µg·h/mL
Cmax ([1]; C57BL/6, mouse, plasma, single IV NP F26 51 mg/kg, read-out: Cmax in plasma): 17500 ng/mL
half-life ([1]; C57BL/6, mouse, plasma, single IV NP F26 51 mg/kg, read-out: T1/2 in plasma (converted)): 4.75 h
AUClast in brain ([1]; single IV NP F26 51 mg/kg): 23,398.14 ng.h/g
IC50 ([3]; [3H] oleate pulse assay, MEFs (predominantly ACAT1), read-out: IC50 against ACAT in MEFs): 3 nM
Potency as ACAT1 inhibitor compared to F12511 (fold) ([3]; from IC50 values in MEFs): close to seven-fold
SMILES: CCCCCCCCCCCCS(=O)(=O)[C@](F)(C(=O)Nc1cc(C)c(O)c(C)c1C)c1ccccc1 [F26]
Potency for inhibiting rat liver microsomal ACAT [2]: more potent than F12511
Concentration required to induce cell toxicity relative to that for ACAT1 inhibition ([4]; 50 µM or higher vs IC50 in MEFs): over 1000 times
Effect on cell viability (XTT) [4]: neither F12511 nor F26 affected cell viability
viability at 24 h, 150 µM [5]: 81%

SMILES: CCCCCCCCCCCCS[C@H](C(=O)Nc1cc(C)c(O)c(C)c1C)c1ccccc1 [F12511, eflucimibe]
IC50 [6]: 110 nM
Effect on cell viability (XTT) [4]: neither F12511 nor F26 affected cell viability
Toxicity in primary mouse neuronal cells [7]: no detectable toxicity
Brain Concentration [8, 13]: 56 ng/g and 83 ng/g and 98 ng/g and 95 ng/g
Plasma Concentration [8, 13]: 11,185 ng/mL and 13,184 ng/mL and 12,883 ng/mL and 31,224 ng/mL
Brain Concentration [8, 14]: 25 ng/g and 26 ng/g
Plasma Concentration [8, 14]: 345 ng/mL and 487 ng/mL
Brain Concentration [8, 15]: 7 ng/g and 9 ng/g
Plasma Concentration [8, 15]: 101 ng/mL and 21 ng/mL
